Source: PubChem BioAssay AID2060505 (Molecular Pharmacology Branch, DTP, NCI, 2025)

Test system: 633275-114-R-J1-PDC complex spheroids, viability
Assay: Anticancer human tumor 633275-114-R-J1-PDC patient-derived endometrial adenocarcinoma cell line growth inhibition [GQUAD]
Conditions: for IC50: curve of first compound; for viability, T/C: stronger effect = lower value
Outline: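 Multi-cell-type spheroids of tumor cells with HUVEC and mesenchymal stem cells, treated with drug combinations. Concentrations descend in half-log steps from near clinical Cmax, or from 10 microM where Cmax is unknown; viability read-out.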

[1] = second compound 0.0316 µM, first compound 0.0316 µM
[2] = second compound 0.0316 µM, first compound 0.1 µM
[3] = second compound 0.0316 µM, first compound 0.316 µM
[4] = second compound 0.0316 µM, first compound 1 µM
[5] = second compound 0.0316 µM, first compound 3.16 µM
[6] = second compound 0.0316 µM, first compound 10 µM
[7] = second compound 0.1 µM, first compound 0.0316 µM
[8] = second compound 0.1 µM, first compound 0.1 µM
[9] = second compound 0.1 µM, first compound 0.316 µM
[10] = second compound 0.1 µM, first compound 1 µM
[11] = second compound 0.1 µM, first compound 3.16 µM
[12] = second compound 0.1 µM, first compound 10 µM
[13] = second compound 0.316 µM, first compound 0.0316 µM
[14] = second compound 0.316 µM, first compound 0.1 µM
[15] = second compound 0.316 µM, first compound 0.316 µM
[16] = second compound 0.316 µM, first compound 1 µM
[17] = second compound 0.316 µM, first compound 3.16 µM
[18] = second compound 0.316 µM, first compound 10 µM
[19] = second compound 1 µM, first compound 0.0316 µM
[20] = second compound 1 µM, first compound 0.1 µM
[21] = second compound 1 µM, first compound 0.316 µM
[22] = second compound 1 µM, first compound 1 µM
[23] = second compound 1 µM, first compound 3.16 µM
[24] = second compound 1 µM, first compound 10 µM
[25] = second compound 3.16 µM, first compound 0.0316 µM
[26] = second compound 3.16 µM, first compound 0.1 µM
[27] = second compound 3.16 µM, first compound 0.316 µM
[28] = second compound 3.16 µM, first compound 1 µM
[29] = second compound 3.16 µM, first compound 3.16 µM
[30] = second compound 3.16 µM, first compound 10 µM
[31] = second compound 10 µM, first compound 0.0316 µM
[32] = second compound 10 µM, first compound 0.1 µM
[33] = second compound 10 µM, first compound 0.316 µM
[34] = second compound 10 µM, first compound 1 µM
[35] = second compound 10 µM, first compound 3.16 µM
[36] = second compound 10 µM, first compound 10 µM
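Further: spheroids exposed to the agents for seven days.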
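Wherever viability, T/C is given: percent of DMSO vehicle control viability which is 100%.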

C=CCn1c(=O)c2cnc(Nc3ccc(N4CCN(C)CC4)cc3)nc2n1-c1cccc(C(C)(C)O)n1 + CN(C)c1ccc(Nc2c3ccc(NC(=O)CCN4CCCC4)cc3nc3cc(NC(=O)CCN4CCCC4)ccc23)cc1
IC50 (second compound 0.0316 µM): 0.582 µM
IC50 (second compound 0.1 µM): 0.692 µM
IC50 (second compound 0.316 µM): 0.586 µM
IC50 (second compound 1 µM): 0.641 µM
IC50 (second compound 3.16 µM): 0.39 µM
IC50 (second compound 10 µM): < 0.0316 µM
viability, T/C [1]: 103%
viability, T/C [2]: 84.3%
viability, T/C [3]: 69.8%
viability, T/C [4]: 33.9%
viability, T/C [5]: 19.5%
viability, T/C [6]: 14.8%
viability, T/C [7]: 106%
viability, T/C [8]: 92.5%
viability, T/C [9]: 82.1%
viability, T/C [10]: 34.2%
viability, T/C [11]: 20.8%
viability, T/C [12]: 14.1%
viability, T/C [13]: 105%
viability, T/C [14]: 97%
viability, T/C [15]: 63.8%
viability, T/C [16]: 37.6%
viability, T/C [17]: 20.6%
viability, T/C [18]: 15.6%
viability, T/C [19]: 93.4%
viability, T/C [20]: 85%
viability, T/C [21]: 71%
viability, T/C [22]: 36.9%
viability, T/C [23]: 19.8%
viability, T/C [24]: 15.7%
viability, T/C [25]: 87.2%
viability, T/C [26]: 66.8%
viability, T/C [27]: 55.8%
viability, T/C [28]: 34.8%
viability, T/C [29]: 29.4%
viability, T/C [30]: 16.6%
viability, T/C [31]: 32.2%
viability, T/C [32]: 23.9%
viability, T/C [33]: 22.2%
viability, T/C [34]: 16.9%
viability, T/C [35]: 14.9%
viability, T/C [36]: 7.51%

COc1ncnc(C2CC2)c1-c1ncc2cnn(Cc3ccc(-c4nc(C(F)(F)F)cn4C(C)C)cc3)c2n1 + CN(C)c1ccc(Nc2c3ccc(NC(=O)CCN4CCCC4)cc3nc3cc(NC(=O)CCN4CCCC4)ccc23)cc1
IC50 (second compound 0.0316 µM): > 10 µM
IC50 (second compound 0.1 µM): > 10 µM
IC50 (second compound 0.316 µM): > 10 µM
IC50 (second compound 1 µM): > 10 µM
IC50 (second compound 3.16 µM): > 10 µM
IC50 (second compound 10 µM): < 0.0316 µM
viability, T/C [1]: 102%
viability, T/C [2]: 102%
viability, T/C [3]: 84.5%
viability, T/C [4]: 101%
viability, T/C [5]: 102%
viability, T/C [6]: 95.4%
viability, T/C [7]: 101%
viability, T/C [8]: 90.8%
viability, T/C [9]: 88.4%
viability, T/C [10]: 99%
viability, T/C [11]: 93.3%
viability, T/C [12]: 87.3%
viability, T/C [13]: 86.8%
viability, T/C [14]: 103%
viability, T/C [15]: 86.8%
viability, T/C [16]: 94.5%
viability, T/C [17]: 97.2%
viability, T/C [18]: 94%
viability, T/C [19]: 89.3%
viability, T/C [20]: 97.9%
viability, T/C [21]: 92.6%
viability, T/C [22]: 69.2%
viability, T/C [23]: 96.6%
viability, T/C [24]: 92.3%
viability, T/C [25]: 79.8%
viability, T/C [26]: 81.7%
viability, T/C [27]: 81.2%
viability, T/C [28]: 76.1%
viability, T/C [29]: 84.4%
viability, T/C [30]: 67.8%
viability, T/C [31]: 32.7%
viability, T/C [32]: 30.2%
viability, T/C [33]: 31.1%
viability, T/C [34]: 27.2%
viability, T/C [35]: 26.6%
viability, T/C [36]: 12.8%

CC(C)n1c(=O)n(C)c2cnc3cc(F)c(-c4ccc(OCCCN5CCCCC5)nc4)cc3c21 + Cc1[nH]c2ccc(F)cc2c1-c1nc2c3cccnc3c3ncccc3c2[nH]1
IC50 (second compound 0.0316 µM): > 10 µM
IC50 (second compound 0.1 µM): > 10 µM
IC50 (second compound 0.316 µM): > 10 µM
IC50 (second compound 1 µM): > 10 µM
IC50 (second compound 3.16 µM): > 10 µM
IC50 (second compound 10 µM): > 10 µM
viability, T/C [1]: 109%
viability, T/C [2]: 105%
viability, T/C [3]: 109%
viability, T/C [4]: 100%
viability, T/C [5]: 95.3%
viability, T/C [6]: 68.3%
viability, T/C [7]: 109%
viability, T/C [8]: 105%
viability, T/C [9]: 108%
viability, T/C [10]: 101%
viability, T/C [11]: 97.8%
viability, T/C [12]: 70.5%
viability, T/C [13]: 106%
viability, T/C [14]: 105%
viability, T/C [15]: 99.8%
viability, T/C [16]: 99.2%
viability, T/C [17]: 99.9%
viability, T/C [18]: 71.2%
viability, T/C [19]: 106%
viability, T/C [20]: 98.2%
viability, T/C [21]: 103%
viability, T/C [22]: 90.9%
viability, T/C [23]: 98.7%
viability, T/C [24]: 70.7%
viability, T/C [25]: 79.8%
viability, T/C [26]: 76.3%
viability, T/C [27]: 76.2%
viability, T/C [28]: 72.2%
viability, T/C [29]: 68.9%
viability, T/C [30]: 55.1%
viability, T/C [31]: 76.4%
viability, T/C [32]: 74.4%
viability, T/C [33]: 73.9%
viability, T/C [34]: 74.1%
viability, T/C [35]: 75%
viability, T/C [36]: 55.4%
